# Measurements published in US12551536B2, “Semaglutide in medical therapy” (Novo Nordisk A/S, priority 2017, dated 2026).
# Legend:
# Assay type in all cases: in vivo, human
# [1] = 52-week clinical trial of once-daily semaglutide in obese subjects without diabetes mellitus: change in body weight; conditions: for Change in body weight (%) from baseline to week 52, Change (%) Estimate / Change in body weight, Treatment difference (%-points) vs. Lira 3.0 mg / Change in body weight, Treatment difference (%-points) vs. Placebo Pool: ANCOVA, J2R-MI; for Change in body weight (%) from baseline at week 52, Model prediction (Estimate) %: Emax dose-response modelling; for Change in body weight (%) from baseline to week 52, Subjects in-trial, Mean / Change in body weight (%) from baseline to week 52, Subjects on-treatment, Mean: observed data
# Method: This trial was designed as a 52-week, randomised, double-blind, placebo-controlled, sixteen-armed, parallel group, multi-centre, multinational trial comparing once-daily subcutaneous administration of semaglutide in five different doses (ranging from 0.05 mg/day to 0.4 mg/day) with placebo in obese subjects without diabetes mellitus. […] The trial was double-blinded between active and placebo treatment. To ensure a sufficiently large sample of men, no more than 70% of the trial population was allowed to be women and the randomisation was stratified according to sex. Subjects were randomised in a balanced manner (6:1 active:placebo).
# The primary endpoint was relative change from baseline in body weight (%) at 52 weeks. Key secondary endpoints included proportion of subjects with weight loss of ≥5% or ≥10% of baseline body weight at 52 weeks as well as change in body weight from baseline to 52 weeks. Supportive secondary safety endpoints also included gastrointestinal (GI) adverse events (i.e. nausea, vomiting, diarrhoea and constipation). During each site visit the individual subject was asked via open questions if they had experienced any medical problems since the last visit. All medical problems either observed by the site staff or the subject was reported as an adverse event and evaluated for severity and causality by the investigator. For this trial the subjects had site visits every 2 weeks for the first 20 weeks of the trial and afterwards site visits was performed every 4 weeks.
# Subjects in all treatment arms including placebo received nutritional counselling and a calorie-reduced diet by a dietician or equivalent qualified delegate as well as physical activity counselling by a qualified person on a monthly basis beginning at the randomisation visit. The trial population consisted of a total of 957 subjects were randomised. A total of 777 subjects (81.2%) completed 52 weeks of treatment; 180 (18.8%) discontinued treatment prematurely with no obvious dose-dependent trend. Key inclusion criteria for this trial were: Male or female, age ≥18 years at the time of signing inform consent; body mass index (BMI)≥30.0 kg/m2 at the screening visit; and at least one unsuccessful weight loss attempt per investigator judgement. Key exclusion criteria for this trial were: A HbA1c≥6.5% at screening or diagnosed with type 1 or type 2 diabetes mellitus; Treatment with glucose lowering agent(s) within 90 days before screening; Screening calcitonin ≥50 ng/L (pg/mL); Personal or family history of medullary thyroid carcinoma or multiple endocrine neoplasia syndrome type 2; History of pancreatitis (acute or chronic); Obesity induced by endocrine disorders (e.g. Cushing Syndrome); Treatment with any medication within 90 days before screening that based on investigator's judgement may cause significant weight change; Previous surgical treatment for obesity (liposuction and/or abdominoplasty performed >1 year before screening is allowed); History of major depressive disorder within 2 years before randomisation; Any lifetime history of a suicidal attempt; and Female who is pregnant, breast-feeding or intends to become pregnant or is of childbearing potential and not using an adequate contraceptive method (adequate contraceptive measures as required by local regulation or practice).
# Statistical analyses of effect endpoints: The primary analysis was based on a ‘jump-to-reference’ multiple imputation approach (J2R-MI). Week 52 data from subjects who discontinued trial product and returned for the visit at week 52 were included in the analysis. First, an imputation model using observed week 52 body weight (kg) measurements from the placebo arm only were estimated. Second, multiple copies (1000) of the full analysis set were generated by imputing missing values in all treatment arms from the imputation model. The primary endpoint was calculated in each complete data set and analysed using an analysis of covariance (ANCOVA) model. […]
# HbA1c = test: 26-week clinical trial in adult patients with T2D: change in HbA1c; conditions: baseline to week 26
# Method: (§1) A 26-week, randomized, double-blind clinical trial was carried out with adult patients with T2D, HbA1c 7.0-10.0% (53-86 mmol/mol), and body mass index 24.0-40.0 kg/m^2 who were treated with diet and exercise±metformin. […] The primary endpoint was change in HbA1c from baseline to week 26. Key exclusion criteria were a history of chronic or idiopathic acute pancreatitis and moderate-to-severe renal impairment (estimated glomerular filtration rate <60 mL/min/1.73 m^2).
# Trial drug administration: Following a 2-week screening period, patients received trial medication for 26 weeks, followed by a 7-week follow-up period.
# [2] = 26-week clinical trial in adult patients with T2D: body weight change; conditions: on-treatment, estimated data
# Method: as §1
# (§2) Trial drug administration: Following a 2-week screening period, patients received trial medication for 26 weeks, followed by a 7-week follow-up period. […] The trial was double blinded within (but not between) each dose level of semaglutide, liraglutide and placebo, as treatment was volume matched.
# [3] = 26-week clinical trial in adult patients with T2D: gastrointestinal adverse events incl. nausea; conditions: on-treatment
# Method: as §1, §2
# [4] = Sema 0.05 mg once daily s.c., week 52
# [5] = Sema 0.1 mg once daily s.c., week 52
# [6] = Sema 0.2 mg once daily s.c., week 52
# [7] = Sema 0.3 mg once daily s.c., week 52
# [8] = Sema 0.4 mg once daily s.c., week 52
# [9] = Sema 0.05 mg once daily s.c., N 64
# [10] = Sema 0.1 mg once daily s.c., N 63
# [11] = Sema 0.2 mg once daily s.c., N 65
# [12] = Sema 0.3 mg once daily s.c., N 63
substance,measurement,setting,value
"N^6.26-{18-[N-(17-carboxyheptadecanoyl)-L-γ-glutamyl]-10-oxo-3,6,12,15-tetraoxa-9,18-diazaoctadecanoyl}-[8-(2-amino-2-propanoic acid),34-L-arginine]human glucagon-like peptide 1(7-37) [Sema]",Corresponding Sema dose (dosage of semaglutide providing the same body weight reduction as 3.0 mg liraglutide),"[1]; Lira 3.0 mg, Emax model, Estimate [95% CI], week 52",0.08 mg
same,"Change in body weight (%) from baseline to week 52, Change (%) Estimate",[1]; Sema 0.05 mg once daily s.c.,−5.99%
same,"Change in body weight, Treatment difference (%-points) vs. Lira 3.0 mg",[1]; [4],1.77 %-points
same,"Change in body weight, Treatment difference (%-points) vs. Placebo Pool",[1]; [4],−3.70 %-points
same,"Change in body weight (%) from baseline at week 52, Model prediction (Estimate) %",[1]; Sema 0.05 mg,−6.19%
same,"Change in body weight (%) from baseline to week 52, Change (%) Estimate",[1]; Sema 0.1 mg once daily s.c.,−8.62%
same,"Change in body weight (%) from baseline to week 52, Subjects in-trial, Mean",[1]; Sema 0.1 mg once daily s.c.,−9.11%
same,"Change in body weight (%) from baseline to week 52, Subjects on-treatment, Mean",[1]; Sema 0.1 mg once daily s.c.,−9.76%
same,"Change in body weight, Treatment difference (%-points) vs. Lira 3.0 mg",[1]; [5],−0.85 %-points
same,"Change in body weight, Treatment difference (%-points) vs. Placebo Pool",[1]; [5],−6.32 %-points
same,"Change in body weight (%) from baseline at week 52, Model prediction (Estimate) %",[1]; Sema 0.1 mg,−8.47%
same,"Change in body weight (%) from baseline to week 52, Change (%) Estimate",[1]; Sema 0.2 mg once daily s.c.,−11.60%
same,"Change in body weight (%) from baseline to week 52, Subjects in-trial, Mean",[1]; Sema 0.2 mg once daily s.c.,−12.54%
same,"Change in body weight (%) from baseline to week 52, Subjects on-treatment, Mean",[1]; Sema 0.2 mg once daily s.c.,−13.68%
same,"Change in body weight, Treatment difference (%-points) vs. Lira 3.0 mg",[1]; [6],−3.83 %-points
same,"Change in body weight, Treatment difference (%-points) vs. Placebo Pool",[1]; [6],−9.31 %-points
same,"Change in body weight (%) from baseline at week 52, Model prediction (Estimate) %",[1]; Sema 0.2 mg,−11.00%
same,"Change in body weight (%) from baseline to week 52, Change (%) Estimate",[1]; Sema 0.3 mg once daily s.c.,−11.17%
same,"Change in body weight (%) from baseline to week 52, Subjects in-trial, Mean",[1]; Sema 0.3 mg once daily s.c.,−12.06%
same,"Change in body weight (%) from baseline to week 52, Subjects on-treatment, Mean",[1]; Sema 0.3 mg once daily s.c.,−12.97%
same,"Change in body weight, Treatment difference (%-points) vs. Lira 3.0 mg",[1]; [7],−3.41 %-points
same,"Change in body weight, Treatment difference (%-points) vs. Placebo Pool",[1]; [7],−8.88 %-points
same,"Change in body weight (%) from baseline at week 52, Model prediction (Estimate) %",[1]; Sema 0.3 mg,−12.37%
same,"Change in body weight (%) from baseline to week 52, Change (%) Estimate",[1]; Sema 0.4 mg once daily s.c.,−13.84%
same,"Change in body weight (%) from baseline to week 52, Subjects in-trial, Mean",[1]; Sema 0.4 mg once daily s.c.,−13.96%
same,"Change in body weight (%) from baseline to week 52, Subjects on-treatment, Mean",[1]; Sema 0.4 mg once daily s.c.,−16.17%
same,"Change in body weight, Treatment difference (%-points) vs. Lira 3.0 mg",[1]; [8],−6.08 %-points
same,"Change in body weight, Treatment difference (%-points) vs. Placebo Pool",[1]; [8],−11.55 %-points
same,"Change in body weight (%) from baseline at week 52, Model prediction (Estimate) %",[1]; Sema 0.4 mg,−13.24%
same,"Change in body weight (%) from baseline to week 52, Subjects in-trial, Mean",[1]; Sema 0.5 mg once daily s.c.,−6.33%
same,"Change in body weight (%) from baseline to week 52, Subjects on-treatment, Mean",[1]; Sema 0.5 mg once daily s.c.,−6.79%
same,Mean Change in HbA1c % (SD),HbA1c; Sema 0.05 mg once daily s.c.,−0.97 (0.85) %
same,Mean Change in HbA1c % (SD),HbA1c; Sema 0.1 mg once daily s.c.,−1.30 (1.03) %
same,Mean Change in HbA1c % (SD),HbA1c; Sema 0.2 mg once daily s.c.,−1.65 (0.79) %
same,Mean Change in HbA1c % (SD),HbA1c; Sema 0.3 mg once daily s.c.,−1.96 (0.95) %
same,"Body weight change, mean (kg), baseline to week 26",[2]; Sema 0.05 mg once daily s.c.,-2.8 kg
same,"Body weight change, mean (kg), baseline to week 26",[2]; Sema 0.1 mg once daily s.c.,-4.3 kg
same,"Body weight change, mean (kg), baseline to week 26",[2]; Sema 0.2 mg once daily s.c.,-6.7 kg
same,"Body weight change, mean (kg), baseline to week 26",[2]; Sema 0.3 mg once daily s.c.,-8.2 kg
same,"Gastrointestinal adverse events, % (percentage of patients experiencing at least one event)",[3]; Sema 0.05 mg once daily s.c.,32.8%
same,"Gastrointestinal adverse events, E (number of events)",[3]; Sema 0.05 mg once daily s.c.,61
same,"Nausea, % (percentage of patients experiencing at least one event)",[3]; Sema 0.05 mg once daily s.c.,17.2%
same,"Nausea, E (number of events)",[3]; Sema 0.05 mg once daily s.c.,16
same,"Gastrointestinal adverse events, Ne (number of patients experiencing at least one event)",[3]; [9],21
same,"Nausea, Ne (number of patients experiencing at least one event)",[3]; [9],11
same,"Gastrointestinal adverse events, % (percentage of patients experiencing at least one event)",[3]; Sema 0.1 mg once daily s.c.,44.4%
same,"Gastrointestinal adverse events, E (number of events)",[3]; Sema 0.1 mg once daily s.c.,90
same,"Nausea, % (percentage of patients experiencing at least one event)",[3]; Sema 0.1 mg once daily s.c.,19.0%
same,"Nausea, E (number of events)",[3]; Sema 0.1 mg once daily s.c.,20
same,"Gastrointestinal adverse events, Ne (number of patients experiencing at least one event)",[3]; [10],28
same,"Nausea, Ne (number of patients experiencing at least one event)",[3]; [10],12
same,"Gastrointestinal adverse events, % (percentage of patients experiencing at least one event)",[3]; Sema 0.2 mg once daily s.c.,46.2%
same,"Gastrointestinal adverse events, E (number of events)",[3]; Sema 0.2 mg once daily s.c.,106
same,"Nausea, % (percentage of patients experiencing at least one event)",[3]; Sema 0.2 mg once daily s.c.,21.5%
same,"Nausea, E (number of events)",[3]; Sema 0.2 mg once daily s.c.,22
same,"Gastrointestinal adverse events, Ne (number of patients experiencing at least one event)",[3]; [11],30
same,"Nausea, Ne (number of patients experiencing at least one event)",[3]; [11],14
same,"Gastrointestinal adverse events, % (percentage of patients experiencing at least one event)",[3]; Sema 0.3 mg once daily s.c.,54.0%
same,"Gastrointestinal adverse events, E (number of events)",[3]; Sema 0.3 mg once daily s.c.,101
same,"Nausea, % (percentage of patients experiencing at least one event)",[3]; Sema 0.3 mg once daily s.c.,25.4%
same,"Nausea, E (number of events)",[3]; Sema 0.3 mg once daily s.c.,22
same,"Gastrointestinal adverse events, Ne (number of patients experiencing at least one event)",[3]; [12],34
same,"Nausea, Ne (number of patients experiencing at least one event)",[3]; [12],16
